The values below come from US5919464A, “Treatment of aberrant cellular states with biomodulators” (University of New Mexico, priority 1993, dated 1999).

The test system of assay [1] is B16 melanoma cells. Kind of assay: effect of swainsonine on cytotoxic T-lymphocytes (51Cr cytotoxicity assay). It is filed as in vivo, mouse. The procedure: The cytotoxicity assay used two targets: YAC-1, for natural killer cell targets and B16 melanoma cells, for cytolytic T-cell targets. The YAC-1 cells were labelled in GKN (glucose/KCl/NaCl) with ^51 Cr (NEN-DuPont,400-1200 Ci/g activity) for 60 min. The B16's were ^51 Cr labelled in complete α-MEM media for 60 min. Both targets were washed twice through whole fetal calf serum to remove damaged and dead cells and then suspended in complete RPMI at a final concentration of 1×10^5 cells/ml. The spleen cells (effector cells) were plated in round bottom 96 well trays starting at 1×10^7 cells/ml (100μl/well), using a halving dilution that provided splenocyte concentrations of 10^6, 5×10^5, 2.5×10^5, 1.25×10^5, 6.25×10^4 and 3.125×10^4, all done in triplicate. The target cells were added at 1×10^4 cell/100 μl/well; this gave an effector:target cell ratio ranging from 100:1 to 3:1. Controls included spontaneous ^51 Cr release and 100% lysis (10% triton treatment). The trays were centrifuged at 50×g for 5 min. and incubated in a CO2 incubator at 37° C. for 16 hours. The trays were spun again at 50×g for 5 minutes and 100 μl removed from each well for counting. A Packard gamma counter (United Technologies) was used for counting. Each sample was counted for 1 min. giving a 5% counting efficiency. The following equation was used to determine percent lysis. [formula]
The effector:target ratios were then plotted against percent lysis and a simple line equation was determined for each treatment group. The slope of this line was then used to determine the total effector kill efficiency.
The ^51 Cr cytotoxicity assay was also run with the B16 melanoma cells as the target and the splenocytes from the same mice as above as the effector cells. The baseline mice (no tumor/no Sw) and the control mice (tumor/no Sw) had very similar line shapes and slopes. There were significant differences (p=0.03) between the presence and absence of tumor (see Table in FIG. 68).

In assay [2] the test system is B16F10 cells. As to conditions: Sw in drinking water (3 μg/ml) for 24 hours; cited from earlier work.
For assay [3], the system named is IL-2R; LAK. As to conditions: in words, cited from earlier work.
The subject of assay [4] is solid tumor models. The settings on record: in words; cited from earlier work.

Take `O[C@H]1[C@H]2[C@H](O)CCCN2C[C@H]1O` [Swainsonine, swainsonine]: the “increase in line slope (kill efficiency)” value in assay [1] (0.1 μg Sw alone) is listed as 104%. Also, the “CTL activity before exposure to specific target” value in assay [1] (0.1 μg Sw for 3 weeks, in words) was “significant increase in the CTL activity”. Besides, the “convertability from NK to CTL” value in assay [1] (0.1 μg Sw with tumors, tumor control 17.5%) stood at 39%. The “stimulation of CTL” value in assay [2] was “no stimulation of CTL”. In assay [3] (following mitogenic stimulation), the “lymphoid IL-2R expression and IL-2 induced proliferation” value is “augmented lymphoid IL-2R expression and IL-2 induced proliferation”. Also, in assay [3] (normally sub-optimal stimulation doses), the LAK induction result is on record as “augmented the LAK induction”. Besides, the “growth of other solid tumors” value in assay [4] is recorded as “delay growth in several other solid tumor models”.
